Results from patent publication US20230265118A1, “SALT OF CURCUMIN MONOGLUCURONIDE” (THERABIOPHARMA INC., priority 2020, published 2023).

Key:
[1] = Stability in water-methanol solution (residual ratio by HPLC); format: physicochemical; conditions: for Residual Ratio: dissolved in 15 mL water-methanol (1:1), left at room temperature for 35 days, HPLC; for Half-Life: solution in water-methanol (1:1), room temperature
Procedure: A curcumin monoglucuronic acid conjugate (3.62 mg) and a sodium salt of the curcumin monoglucuronic acid conjugate (3.44 mg) were each dissolved in 15 mL of water-methanol (1:1). The prepared solution was left at room temperature for 35 days, and a residual ratio was determined by HPLC.

[2] = Solubility in distilled water; format: physicochemical; conditions: 100 mg in 1 mL of distilled water

Residual Ratio [1] [%]	Half-Life [1] [days]	Solubility in distilled water [2]	SMILES
80.8	126.1	hardly dissolved	COc1cc(/C=C/C(=O)CC(=O)/C=C/c2ccc(O[C@@H]3O[C@H](C(=O)O)[C@@H](O)[C@H](O)[C@H]3O)c(OC)c2)ccc1O [curcumin monoglucuronic acid conjugate, curcumin monoglucuronide]
93.8	378.4	> 100 mg/mL	COc1cc(/C=C/C(=O)CC(=O)/C=C/c2ccc(O[C@@H]3O[C@H](C(=O)[O-])[C@@H](O)[C@H](O)[C@H]3O)c(OC)c2)ccc1O.[Na+] [sodium(2S,3S,4S,5R,6S)-3,4,5-trihydroxy-6-(4-((1E,6E)-7-(4-hydroxy-3-methoxyphenyl)-3,5-dioxohepta-1,6-dien-1-yl)-2-methoxyphenoxy)tetrahydro-2H-pyran-2-carboxylate]
